Assay results reported in patent US10106558B2, “Azolobenzazine compounds, compositions comprising these compounds and their use for controlling invertebrate pests” (BASF SE, priority 2015, dated 2018).
Like-named read-outs stand apart in the source and are kept apart here.

Key:
Assay type in all cases: in vivo
[1] = tested on: yellow fever mosquito (Aedes aegypti); assay: whole plant or invertebrate; settings: 48 h, larval mortality visually assessed after 2 days, read-out: mortality in comparison with untreated controls
Method: Example B1: Action on Yellow Fever Mosquito (Aedes aegypti)
For evaluating control of yellow fever mosquito (Aedes aegypti) the test unit consisted of 96-well-microtiter plates containing 200 μl of tap water per well and 5-15 freshly hatched A. aegypti larvae.
The active compounds were formulated using a solution containing 75% (v/v) water and 25% (v/v) DMSO. Different concentrations of formulated compounds or mixtures were sprayed onto the insect diet at 2.5 μl, using a custom built micro atomizer, at two replications.
After application, microtiter plates were incubated at 28+1° C., 80+5% RH for 2 days. Larval mortality was then visually assessed.

[2] = tested on: Orchid Thrips (Dichromothrips corbetti); assay: Action on orchid thrips, floral-immersion technique; settings: adult thrips, 72 hours after treatment, read-out: mortality in comparison with untreated controls
Method: Example B2: Action on Orchid Thrips (Dichromothrips Corbetti)
Dichromothrips corbettiadults used for bioassay were obtained from a colony maintained continuously under laboratory conditions. For testing purposes, the test compound is diluted in a 1:1 mixture of acetone:water (vol:vol), plus Kinetic® HV at a rate of 0.01% v/v.
Thrips potency of each compound was evaluated by using a floral-immersion technique. All petals of individual, intact orchid flowers were dipped into treatment solution and allowed to dry in Petri dishes. Treated petals were placed into individual re-sealable plastic along with about 20 adult thrips. All test arenas were held under continuous light and a temperature of about 28° C. for duration of the assay. After 3 days, the numbers of live thrips were counted on each petal. The percent mortality was recorded 72 hours after treatment.

[3] = tested on: boll weevil (Anthonomus grandis); assay: Action on boll weevil, eggs on insect diet in 96-well microtiter plates; settings: 120 h, read-out: mortality in comparison with untreated controls
Method: Example B3: Action on Boll Weevil (Anthonomus grandis)
For evaluating control of boll weevil (Anthonomus grandis) the test unit consisted of 96-well-microtiter plates containing an insect diet and 5-10 A. grandis eggs.
(§1) The compounds were formulated using a solution containing 75% v/v water and 25% v/v DMSO. Different concentrations of formulated compounds were sprayed onto the insect diet at 5 μl, using a custom built micro atomizer, at two replications.
After application, microtiter plates were incubated at about 25±1° C. and about 75±5% relative humidity for 5 days. Egg and larval mortality was then visually assessed.

[4] = tested on: Mediterranean fruitfly (Ceratitis capitata); assay: Action on Mediterranean fruitfly, eggs on insect diet in microtiter plates; settings: 120 h, egg and larval mortality visually assessed after 5 days, read-out: mortality in comparison with untreated controls
Method: Example B5: Action on Mediterranean Fruitfly (Ceratitis capitata)
For evaluating control of Mediterranean fruitfly (Ceratitis capitata) the test unit consisted of microtiter plates containing an insect diet and 50-80 C. capitata eggs.
as §1
After application, microtiter plates were incubated at about […] and about 80+5% relative humidity for 5 days. Egg and larval mortality was then visually assessed.

[5] = tested on: tobacco budworm (Heliothis virescens); assay: Action on tobacco budworm, eggs on insect diet in 96-well microtiter plates; settings: 120 h, egg and larval mortality visually assessed after 5 days, read-out: mortality in comparison with untreated controls
Method: Example B6: Action on Tobacco Budworm (Heliothis virescens)
For evaluating control of tobacco budworm (Heliothis virescens) the test unit consisted of 96-well-microtiter plates containing an insect diet and 15-25 H. virescens eggs.
The compounds were formulated using a solution containing 75% v/v water and 25% v/v DMSO. Different concentrations of formulated compounds were sprayed onto the insect diet at 10 μl, using a custom built micro atomizer, at two replications.
After application, microtiter plates were incubated at about 28±1° C. and about 80±5% relative humidity for 5 days. Egg and larval mortality was then visually assessed.

[6] = tested on: green peach aphid (Myzus persicae) (mixed life stages); assay: Action on green peach aphid, liquid artificial diet under artificial membrane; settings: 72 h, read-out: mortality in comparison with untreated controls
From the text: Example B8: Action on Green Peach Aphid (Myzus persicae) (Mixed Life Stages)
For evaluating control of green peach aphid (Myzus persicae) through systemic means the test unit consisted of 96-well-microtiter plates containing liquid artificial diet under an artificial membrane.
The compounds were formulated using a solution containing 75% v/v water and 25% v/v DMSO. Different concentrations of formulated compounds were pipetted into the aphid diet, using a custom built pipetter, at two replications.
After application, 5-8 adult aphids were placed on the artificial membrane inside the microtiter plate wells. The aphids were then allowed to suck on the treated aphid diet and incubated at about 23±1° C. and about 50±5% relative humidity for 3 days. Aphid mortality and fecundity was then visually assessed.

[7] = tested on: Diamond Back Moth (Plutella xylostella); assay: Action on diamond back moth, dipped cabbage leaves; settings: 3rd instar larvae, 72 hours after treatment, read-out: mortality in comparison with untreated controls
Method: Example B9: Action on Diamond Back Moth (Plutella xylostella)
The active compound is dissolved at the desired concentration in a mixture of 1:1 (vol:vol) distilled water:acetone. Surfactant (Kinetic® HV) is added at a rate of 0.01% (vol/vol). The test solution is prepared at the day of use.
Leaves of cabbage were dipped in test solution and air-dried. Treated leaves were placed in petri dishes lined with moist filter paper and inoculated with ten 3rd instar larvae. Mortality was recorded 72 hours after treatment. Feeding damages were also recorded using a scale of 0-100%.

[8] = tested on: Southern Armyworm (Spodoptera eridania), 2nd instar larvae; assay: Action on southern armyworm 2nd instar larvae, sprayed lima bean plants; settings: 96 h, 4 days after treatment, read-out: mortality in comparison with untreated controls
Method: Example B10: Action on Southern Armyworm (Spodoptera eridania), 2nd Instar Larvae
The active compounds were formulated by a Tecan liquid handler in 100% cyclohexanone as a 10,000 ppm solution supplied in tubes. The 10,000 ppm solution was serially diluted in 100% cyclohexanone to make interim solutions. These served as stock solutions for which final dilutions were made by the Tecan in 50% acetone:50% water (v/v) into 10 or 20 ml glass vials. A nonionic surfactant (Kinetic®) was included in the solution at a volume of 0.01% (v/v). The vials were then inserted into an automated electrostatic sprayer equipped with an atomizing nozzle for application to plants/insects.
Lima bean plants (variety Sieva) were grown 2 plants to a pot and selected for treatment at the 1st true leaf stage. Test solutions were sprayed onto the foliage by an automated electrostatic plant sprayer equipped with an atomizing spray nozzle. The plants were dried in the sprayer fume hood and then removed from the sprayer. Each pot was placed into perforated plastic bags with a zip closure. About 10 to 11 armyworm larvae were placed into the bag and the bags zipped closed. Test plants were maintained in a growth room at about 25° C. and about 20-40% relative humidity for 4 days, avoiding direct exposure to fluorescent light (24 hour photoperiod) to prevent trapping of heat inside the bags. Mortality and reduced feeding were assessed 4 days after treatment, compared to untreated control plants.

[9] = tested on: Silverleaf Whitefly (Bemisia argentifolii) (Adults); assay: Action on silverleaf whitefly adults, sprayed cotton plants; settings: 72 h, 3 days after treatment, read-out: mortality in comparison with untreated controls
Method: Example B4: Action on Silverleaf Whitefly (Bemisia argentifolii) (Adults)
The active compounds were formulated by a Tecan liquid handler in 100% cyclohexanone as a 10,000 ppm solution supplied in tubes. The 10,000 ppm solution was serially diluted in 100% cyclohexanone to make interim solutions. These served as stock solutions for which final dilutions were made by the Tecan in 50% acetone:50% water (v/v) into 5 or 10 ml glass vials. A nonionic surfactant (Kinetic®) was included in the solution at a volume of 0.01% (v/v). The vials were then inserted into an automated electrostatic sprayer equipped with an atomizing nozzle for application to plants/insects.
Cotton plants at the cotyledon stage (one plant per pot) were sprayed by an automated electrostatic plant sprayer equipped with an atomizing spray nozzle. The plants were dried in the sprayer fume hood and then removed from the sprayer. Each pot was placed into a plastic cup and about 10 to 12 whitefly adults (approximately 3-5 days old) were introduced. The insects were collected using an aspirator and a nontoxic Tygon® tubing connected to a barrier pipette tip. The tip, containing the collected insects, was then gently inserted into the soil containing the treated plant, allowing insects to crawl out of the tip to reach the foliage for feeding. Cups were covered with a reusable screened lid. Test plants were maintained in a growth room at about 25° C. and about 20-40% relative humidity for 3 days, avoiding direct exposure to fluorescent light (24 hour photoperiod) to prevent trapping of heat inside the cup. Mortality was assessed 3 days after treatment, compared to untreated control plants.

[10] = tested on: vetch aphid (Megoura viciae); assay: Action on vetch aphid, broad bean leaf disks in 24-well microtiter plates; settings: foliar, 120 h, adult aphids on treated leaf disks, 5 days, read-out: mortality in comparison with untreated controls
Method: Example B7: Action on Vetch Aphid (Megoura viciae)
For evaluating control of vetch aphid (Megoura viciae) through contact or systemic means the test unit consisted of 24-well-microtiter plates containing broad bean leaf disks.
The compounds were formulated using a solution containing 75% v/v water and 25% v/v DMSO. Different concentrations of formulated compounds were sprayed onto the leaf disks at 2.5 μl, using a custom built micro atomizer, at two replications.
After application, the leaf disks were air-dried and 5-8 adult aphids placed on the leaf disks inside the microtiter plate wells. The aphids were then allowed to suck on the treated leaf disks and incubated at about 23±1° C. and about 50±5% relative humidity for 5 days. Aphid mortality and fecundity was then visually assessed.

[11] = 800 ppm, egg and larval mortality visually assessed after 5 days
[12] = 800 ppm, adult aphids on treated aphid diet, 3 days

Cc1ccc(C(C)C)c(NC(=S)N/N=C/c2ccc3c(ccc4c3ncn4-c3ccc(OC(F)(F)F)cc3)n2)c1 [Compound C-5, 1-(2-isopropyl-5-methyl-phenyl)-3-[(E)-[3-[4-(trifluoromethoxy)phenyl]imidazo[4,5-f]quinolin-7-yl]methyleneamino]thiourea]
≥ 75%: mortality at 800 ppm [1] | mortality at 500 ppm [2] | mortality at 800 ppm [3, 11] | mortality at 800 ppm [4] | mortality at 800 ppm [5] | mortality at 800 ppm [6, 12] | mortality at 500 ppm [7] | mortality at 500 ppm [8]

CC(C)c1ccccc1N1/C(=N/N=C/c2ccc3c(ccc4c3ncn4-c3ccc(OC(F)(F)F)cc3)n2)SCC1(C)O (centres unmarked) [Compound C-9, (2Z)-3-(2-isopropylphenyl)-4-methyl-2-[(E)-[3-[4-(trifluoromethoxy)phenyl]imidazo[4,5-f]quinolin-7-yl]methylenehydrazono]thiazolidin-4-ol]
≥ 75%: mortality at 800 ppm [1] | mortality at 500 ppm [2] | mortality at 800 ppm [3, 11] | mortality at 500 ppm [9] | mortality at 800 ppm [4] | mortality at 800 ppm [5] | mortality at 800 ppm [6, 12] | mortality at 500 ppm [7] | mortality at 500 ppm [8]

CC(C)c1ccccc1N1C(=O)CS/C1=N\N=C\c1ccc2c(ccc3c2ncn3-c2ccc(C(F)(F)F)nn2)n1 [Compound C-10, (2Z)-3-(2-isopropylphenyl)-2-[(E)-[3-[6-(trifluoromethyl)pyridazin-3-yl]imidazo[4,5-f]quinolin-7-yl]methylenehydrazono]thiazolidin-4-one]
≥ 75%: mortality at 500 ppm [2] | mortality at 800 ppm [3, 11] | mortality at 500 ppm [9] | mortality at 800 ppm [4] | mortality at 800 ppm [5] | mortality at 800 ppm [10] | mortality at 500 ppm [7] | mortality at 500 ppm [8]

CC(OC(=O)Nc1ccc2c(ccc3c2ncn3-c2ccc(OC(F)(F)F)cc2)n1)c1ccc(Cl)cn1 (centres unmarked) [Compound C-11, 1-(5-chloro-2-pyridyl)ethyl N-[3-[4-(trifluoromethoxy)phenyl]imidazo[4,5-f]quinolin-7-yl]carbamate]
≥ 75%: mortality at 800 ppm [1] | mortality at 800 ppm [3] | mortality at 800 ppm [6]

Cc1cccc(C)c1N1CCCS/C1=N/N=C/c1ccc2c(ccc3c2ncn3-c2ccc(OC(F)(F)F)cc2)n1 [Compound C-23, (E)-3-(2,6-dimethylphenyl)-N-[(E)-[3-[4-(trifluoromethoxy)phenyl]imidazo[4,5-f]quinolin-7-yl]methyleneamino]-1,3-thiazinan-2-imine]
≥ 75%: mortality at 800 ppm [1] | mortality at 500 ppm [2] | mortality at 800 ppm [3, 11] | mortality at 500 ppm [9] | mortality at 800 ppm [4] | mortality at 800 ppm [5] | mortality at 500 ppm [7] | mortality at 500 ppm [8]

CC(C)c1ccccc1/N=C1\SCC(=O)N1/N=C/c1cc2ccc3c(ncn3-c3ccc(OC(F)(F)F)cc3)c2cn1 [Compound C-28, (2Z)-2-(2-isopropylphenyl)imino-3-[(E)-[3-[4-(trifluoromethoxy)phenyl]imidazo[4,5-h]isoquinolin-7-yl]methyleneamino]thiazolidin-4-one]
≥ 75%: mortality at 800 ppm [1] | mortality at 800 ppm [3, 11] | mortality at 800 ppm [4] | mortality at 800 ppm [5] | mortality at 800 ppm [10] | mortality at 500 ppm [7] | mortality at 500 ppm [8]

Cc1cccc(C)c1N1CCS/C1=N/N=C/c1ccc2c(ccc3c2ncn3-c2ccc(OC(F)(F)F)cc2)n1 [Compound C-30, (E)-3-(2,6-dimethylphenyl)-N-[(E)-[3-[4-(trifluoromethoxy)phenyl]imidazo[4,5-f]quinolin-7-yl]methyleneamino]thiazolidin-2-imine]
≥ 75%: mortality at 800 ppm [3, 11] | mortality at 800 ppm [5] | mortality at 800 ppm [6, 12] | mortality at 500 ppm [7]
